Results published in patent publication US20160106719A1, “Transplantation Adjuvant in Cell Therapy Using Neural Progenitor Cells” (SUMITOMO DAINIPPON PHARMA CO., LTD., priority 2013, published 2016).

How the values were obtained:
[1] = tested on: TH+ neurons derived from mouse iPS cells; experiment: In vitro survival of TH+ neurons with caspase 3 expression as index of apoptosis; type: cell-based; details: control 18.0±5.9%; no significant difference among four groups
Method: After the cell sorting, in order to induce the reaggregation of the cells, a PSA-NCAM^+ cell group was seeded in a DMEM/F12 medium (manufactured by Wako Pure Chemical Industries, Ltd.) in a 96-well plate at a concentration (cell density) of 20000 cells/well. The DMEM/F12 medium contained 1% N-2 supplement, 200 nM ascorbic acid, 2% B27 supplement (manufactured by Invitrogen), 0.5 mM L-glutamine and 1% P/S. In order to prevent apoptosis, a ROCK inhibitor, Y-27632 (manufactured by Wako Pure Chemical Industries, Ltd.), was used at a concentration of 30 μM during the cell sorting process and the following overnight cultivation. On day 10 after starting the SFEB, any one of valproic acid (VPA) (manufactured by Sigma-Aldrich), zonisamide (ZNS) sodium salt (manufactured by Sumitomo Dainippon Pharma Co., Ltd.), 17β estradiol (E2) (manufactured by Sigma-Aldrich), a glial cell line derived neurotrophic factor (GDNF) (manufactured by R & D Systems) and PBS(-) was added to the medium for 4 days. Each of VPA, ZNS and E2 was used at three different concentrations. Specifically, the concentration of VPA was 0.01 mM, 0.1 mM or 1 mM, the concentration of ZNS was 1 μM, 10 μM or 100 μM, and the concentration of E2 was 1 nM, 10 nM or 100 nM. GDNF was added at a concentration of […] to be used as a positive control. […]

[2] = tested on: re-aggregated PSA-NCAM+ cells (neural progenitor cells derived from mouse iPS cell line 440A3); experiment: In vitro differentiation of mouse iPS cell-derived neural progenitor cells into dopaminergic neurons (immunocytochemistry for marker molecules); type: cell-based
Method: DMEM contained 1% fetal bovine serum (FBS), 5% knockout serum replacement (KSR; manufactured by Invitrogen), 0.1 mM non-essential amino acids, 1 mM sodium pyruvate, 0.1 mM 2-mercaptoethanol (2-ME; manufactured by Invitrogen), 2000 U/ml leukemia inhibitory factor (manufactured by Invitrogen), and 1.5 μg/ml puromycin. In order to differentiate and induce the iPS cells into neural cells, serum-free floating culture of embryoid bodies-like aggregates (SFEB) was employed. Specifically, aggregates of the 440A3 cells were separated into individual cells by using 0.25% trypsin/1 mM EDTA (ethylenediaminetetraacetic acid), and the resultant cells were seeded in a 96-well low adhesion plate (product name: Lipidure-Coat Plate A-US96, manufactured by NOF Corporation) at a concentration (cell density) of 3000 cells/well. Thereafter, re-aggregation of the 440A3 cells was induced in a differentiation medium containing GMEM (Glasgow Minimum Essential Medium), 5% KSR, 0.1 mM non-essential amino acids, 1 mM sodium pyruvate and 0.1 mM 2-ME, and this day was defined as day 0 (FIG. 1). During this differentiation process, various factors were added to the differentiation medium for inducing midbrain dopaminergic phenotypes as illustrated in FIG. 1. Specifically, from day 3 to day 7 after starting the SFEB, 20 ng/ml of mouse FGF-8b (manufactured by R & D Systems) was added, from day 4 to day 7 after starting the SFEB, 10 ng/ml of recombinant mouse sonic hedgehog (C25I1) N-terminus (manufactured by R & D Systems) was added, and on and after day 7 after starting the SFEB, 1% N-2 supplement (manufactured by Gibco) and 200 nM ascorbic acid were added. The KSR was removed from the differentiation medium on day 7 after starting the SFEB.
On day 9 after starting the SFEB, the 440A3 cells were washed with phosphate buffered saline (PBS(-)) twice. Thereafter, the 440A3 cells were dissociated into single cells by five-minute incubation performed at 37° C. by using Accumax (manufactured by Innovate Cell Technologies, product name). The cells were collected with a FACS buffer. The FACS buffer was constituted by PBS(-) containing 2% FBS, 20 mM D-glucose and 1% penicillin/streptomycin (P/S, manufactured by Invitrogen). The collected cells were mechanically dissociated into a single cell suspension by a gentle pipetting operation.
Next, the resultant cells were incubated with a mouse anti-PSA-NCAM antibody (dilution rate of 1:200, manufactured by Millipore) at 4° C. for about 30 minutes. Thereafter, a washing operation using a centrifuge was performed twice, and the resultant cells were further incubated for 30 minutes with a secondary antibody of a donkey anti-mouse IgG (dilution rate of 1:400, manufactured by Invitrogen) labeled with AlexaFluor 594. Dead cells and cell debris were excluded by using 7-aminoactinomycin-D (7-AAD, manufactured by BD Pharmigen) stain. The remaining living cells were suspended again at a final concentration (cell density) of 1×10^7 cells/ml. Cell sorting was conducted by using a FACSAria II cell sorter (manufactured by Becton Dickinson And Company) equipped with a 488 nm argon laser, a 633 nm helium-neon laser, a 100 μm nozzle and a FACSDiva software program. A PSA-NCAM positive rate was determined on the basis of a negative control not using a primary antibody.
After the cell sorting, in order to induce the reaggregation of the cells, a PSA-NCAM^+ cell group was seeded in a DMEM/F12 medium (manufactured by Wako Pure Chemical Industries, Ltd.) in a 96-well plate at a concentration (cell density) of 20000 cells/well. The DMEM/F12 medium contained 1% N-2 supplement, 200 nM ascorbic acid, 2% B27 supplement (manufactured by Invitrogen), 0.5 mM L-glutamine and 1% P/S. In order to prevent apoptosis, a ROCK inhibitor, Y-27632 (manufactured by Wako Pure Chemical Industries, Ltd.), was used at a concentration of 30 μM during the cell sorting process and the following overnight cultivation. […]

[3] = tested on: grafts derived from mouse iPS cells; experiment: Transplantation experiment of mouse iPS cell-derived dopamine neural progenitor cells into striatum of SD rats (immunohistochemistry of grafts); type: in vivo; details: four weeks after transplantation
Method: Ten-week-old Sprague-Dawley rats (SD rats, available from Shimizu Laboratory Supplies Co., Ltd.) were handled in accordance with the Guidelines for Animal Experiments of Kyoto University. Each SD rat was anesthetized, and donor cells were transplanted by stereotaxic injection into striatums on both sides. Two cell aggregates (containing 3.1×10^5 cells on average) obtained on day 9 after starting the SFEB were collected in 1 μl of PBS(-) so as to be used as the donor cells for the transplantation in each tract. To the PBS(-), Y-27632 was added at a final concentration of […]. Thereafter, intraperitoneal injection of VPA (150 mg/kg/day), ZNS sodium salt (30 mg/kg/day), E2 (80 μM/kg/day) or a saline was conducted from two days before transplanting the donor cells until a day of necropsy. For immunosuppression, cyclosporin A (CsA, manufactured by Wako Pure Chemical Industries, Ltd.) was administered to all the SD rats at a daily dose of 10 mg/kg. Four weeks after the transplantation of the donor cells, the brains of the SD rats were washed and fixed by intracardially perfusing 4% paraformaldehyde under deep anesthesia. On the day of necropsy, a blood sample was collected from each SD rat one hour after the final injection of the test compound or CsA. Such a sample was sent to SRL, Inc. (Tokyo, Japan) where the blood concentration of the administered drug (test compound) was measured.
In an in vitro experiment, a cell aggregate treated with any of the above-described test compounds on day 14 after starting the SFEB was fixed with 4% paraformaldehyde. Thereafter, the fixed cell aggregate was frozen and sliced into thin sections each having a thickness of 10 μM by using a microtome for immunocytochemistry. On the other hand, in an in vivo experiment (transplantation experiment), the brain of a SD rat or a SCID rat was taken out after the transplantation experiment to be fixed again with 4% paraformaldehyde for 2 days. Thereafter, the fixed brain of the SD rat or SCID rat was cryopreserved in 30% sucrose for 3 days, frozen, and sliced into thin sections each having a thickness of 40 μM for immunohistochemistry. The frozen sections of the sphere (spherical cell mass) and the brain were subjected to a permeabilization and blocking treatment in PBS(-) for 1 hour at room temperature to be used as samples. The PBS(-) contained 0.3% Triton-X and 2% donkey serum. Thereafter, each of the sections was incubated overnight together with a primary antibody at 4° C. Primary antibodies used in this example are a rabbit anti-tyrosine hydroxylase antibody (dilution rate of 1:400, TH; manufactured by Millipore), a mouse anti-TH antibody (dilution rate of 1:200, manufactured by Millipore), a sheep anti-TH antibody (dilution rate of 1:400, manufactured by Millipore), a mouse anti-Tubβ3 antibody (dilution rate of 1:1000, Tuj1; manufactured by Covance Inc.), a rat anti-NURR1 antibody (dilution rate of 1:1000, KAN Research Institute, Inc., Kobe, Japan), a rabbit anti-Ki67 antibody (dilution rate of 1:1000, manufactured by Novocastra: NCL-Ki67p), a rabbit anti-caspase 3 antibody (dilution rate of 1:500, manufactured by Santa Cruz Biotechnology, Inc.), a rat anti-M2M6 antibody (dilution rate of 1:50, manufactured by Developmental Study Hybridoma Bank), a mouse anti-Nestin antibody (dilution rate of 1:50; manufactured by Millipore), a rabbit anti-Pitx3 antibody (dilution rate of 1:500; manufactured by Chemicon International Inc.), a goat […] antibody (dilution rate of 1:500, Foxa2; manufactured by Santa Cruz Biotechnology, Inc.), a mouse anti-human Nuclei antibody (dilution rate of 1:1000; manufactured by Millipore), and a mouse anti-NeuN antibody (dilution rate of 1:500, manufactured by Chemicon International Inc.). After washing with PBS (0.05% Tween-20) three times, the resultant sample was incubated with an Alexa Fluor-conjugated secondary antibody for 1 hour at room temperature. […]

[4] = tested on: grafts derived from human iPS cells; experiment: Transplantation experiment of human iPS cell-derived dopamine neural progenitor cells into striatum of SCID rats (immunohistochemistry of grafts); type: in vivo; details: ZNS at a high dose i.p., four weeks after transplantation
Method: Twelve-week-old SCID rats (produced by Institute of Laboratory Animals, Graduate School of Medicine, Kyoto University) were handled in accordance with the Guidelines for Animal Experiments of Kyoto University. The SCID rats were anesthetized, and donor cells were transplanted by stereotaxic injection into striatums on both sides. Dopamine neural progenitor cells (2.7×10^5 cells on average) prepared from 1039A1 cell, that is, a human iPS cell line, were collected in 2 μl of PBS(-) so as to be used as the donor cells for the transplantation in each tract. To the PBS(-), […] was added at a final concentration of 30 μM. Thereafter, intraperitoneal injection of VPA (150 mg/kg/day or 600 mg/kg/day, which are sometimes designated respectively as a high dose and a low dose), ZNS sodium salt (30 mg/kg/day or 60 mg/kg/day, which are sometimes designated respectively as a high dose and a low dose), or a saline was conducted from two days before transplanting the donor cells until a day of necropsy. Four weeks after the transplantation of the donor cells, the brains of the SCID rats were washed and fixed by intracardially perfusing 4% paraformaldehyde under deep anesthesia. On the day of necropsy, a blood sample was collected from each SCID rat one hour after the final injection of the test compound, and the blood concentration of the drug (test compound) was measured.
In an in vitro experiment, a cell aggregate treated with any of the above-described test compounds on day 14 after starting the SFEB was fixed with 4% paraformaldehyde. Thereafter, the fixed cell aggregate was frozen and sliced into thin sections each having a thickness of 10 μM by using a microtome for immunocytochemistry. On the other hand, in an in vivo experiment (transplantation experiment), the brain of a SD rat or a SCID rat was taken out after the transplantation experiment to be fixed again with 4% paraformaldehyde for 2 days. […]

[5] = ddA or ICI singly added to cells, vs control

Compound: C[C@]12CC[C@@H]3c4ccc(O)cc4CC[C@H]3[C@@H]1CC[C@@H]2O [E2, 17β estradiol]
- ratio of dopaminergic neurons undergoing apoptosis (TH+ neurons expressing caspase 3) [1]: low
- ratio of TH+ cells ([2]; E2 10 nM, day 10 to 14, control 5.2±1.1%): 12.2±2.3%

Compound: C[C@]12CC[C@@H]3c4ccc(O)cc4C[C@@H](CCCCCCCCC[S+]([O-])CCCC(F)(F)C(F)(F)F)[C@H]3[C@@H]1CC[C@@H]2O (stereo partly drawn) [ICI, ICI182780]
- ratios of increase in the TH+ cells ([2]; 2 μM ICI added to 10 nM E2): remarkably reduced
- ratio of TH+ cells [2, 5]: not changed as compared with that of the control

Compound: NS(=O)(=O)Cc1noc2ccccc12 [ZNS, 1,2-benzisoxazole-3-methanesulfonamide]
- ratio of the differentiation of the transplanted NPC into neurons (NeuN+) ([3]; ZNS sodium salt 30 mg/kg/day i.p., vs control): almost equivalent to that of a control
- ratio of TH+ cells that were FOXA2+ ([3]; VPA 150 mg/kg/day or ZNS 30 mg/kg/day i.p., control 24.7±9.3%): 80.4±21.1%
- number of midbrain dopaminergic neurons (TH+ FOXA2+) in a graft ([3]; VPA 150 mg/kg/day or ZNS 30 mg/kg/day i.p., control 97±76 cells): 835±540 cells
- ratio of TH+ cells that were FOXA2+ ([4]; control 76.3±9.7%): 91.8±6.2%
- number of midbrain dopaminergic neurons (TH+ FOXA2+) in a graft ([4]; control 2297±1116 cells): 5889±1821 cells
- number of TH+ cells in a graft ([4]; control 3026±1349 cells): 6480±2145 cells

Compound: C[C@H]1O[C@@H](n2cnc3c(N)ncnc32)C[C@@H]1O [ddA, 2,5-dideoxyadenosine]
- ratios of increase in the TH+ cells ([2]; 100 μM ddA added to 0.1 mM VPA): remarkably reduced
- ratio of TH+ cells [2, 5]: not changed as compared with that of the control
